According to patent publication US20230241226A1, “COMPOUNDS FOR TARGETED DEGRADATION OF CARRIER PROTEINS AND USES THEREOF” (CeMM - Forschungszentrum für Molekulare Medizin GmbH, priority 2019, published 2023):

Molecular target: T1, Strep/HA SLC9A8 (Homo sapiens, UniProt Q9Y2E8)
T1 construct: expressed in transfected cells; host or cells: HAP1 (lentiviral, pRRL Strep-HA; cDNA synthesized by Genescript)
Test: Selectivity across SLC9 family: degradation of exogenous Strep/HA SLC9A8
Assay type: cell-based
Settings: HAP1; 250 or 750 nM; 16 hours
Method: (E) Selectivity of d9A1-2 was tested across HAP1 cell lines expressing Strep/HASLC9A1, 9A4, 9A5, 9A8, 9A2, 9B2, 9A6, 9A9, and 9A3. Cells were treated with varying concentrations of d9A1-2 for 16 hours, after which degradation of the exogenous SLCs was monitored.
SLC1A5, SLC2A1, SLC2A3, SLC16A1, SLC38A1, SLC38A2 were obtained as gateway-compatible pENTR/pDONR vectors from the Harvard PlasmID Repository. SLC39A7 was obtained from Dharmacon, GE Healthcare. The following vectors were synthesized by Genescript: SLC4A4, SLC7A3, SLC38A9, SLC25A1, SLC9A1, SLC9A2, SLC9A3, SLC9A4, SLC9A5, SLC9A6, SLC9A7, SLC9A8, and SLC9B2. SLC30A9, SLC33A1, SLC35B2, SLC25A26, and MTCH2 were a gift from the RESOLUTE consortium. cDNAs were transferred into gateway-compatible lentiviral expression vectors: pLX305 dTAG vectors (Addgene #91797/8) or pRRL Strep-HA (described previously43, EF1a promotor driven expression) using LR recombination (ThermoFisher Scientific). […]
For immunoblotting, whole cell extracts were prepared using RIPA lysis buffer (25 mM Tris/HCl pH 7.6, 150 mM NaCl, 1% NP-40, 1% sodium deoxycholate, 0.1% SDS, EDTA-free protease inhibitor (Roche) and phosphatase inhibitors 2+3 (Sigma- Aldrich)). […] Protein extracts were quantified and normalized using the BCA assay (Thermo Scientific). […]

T1 sequence (Q9Y2E8 whole entry): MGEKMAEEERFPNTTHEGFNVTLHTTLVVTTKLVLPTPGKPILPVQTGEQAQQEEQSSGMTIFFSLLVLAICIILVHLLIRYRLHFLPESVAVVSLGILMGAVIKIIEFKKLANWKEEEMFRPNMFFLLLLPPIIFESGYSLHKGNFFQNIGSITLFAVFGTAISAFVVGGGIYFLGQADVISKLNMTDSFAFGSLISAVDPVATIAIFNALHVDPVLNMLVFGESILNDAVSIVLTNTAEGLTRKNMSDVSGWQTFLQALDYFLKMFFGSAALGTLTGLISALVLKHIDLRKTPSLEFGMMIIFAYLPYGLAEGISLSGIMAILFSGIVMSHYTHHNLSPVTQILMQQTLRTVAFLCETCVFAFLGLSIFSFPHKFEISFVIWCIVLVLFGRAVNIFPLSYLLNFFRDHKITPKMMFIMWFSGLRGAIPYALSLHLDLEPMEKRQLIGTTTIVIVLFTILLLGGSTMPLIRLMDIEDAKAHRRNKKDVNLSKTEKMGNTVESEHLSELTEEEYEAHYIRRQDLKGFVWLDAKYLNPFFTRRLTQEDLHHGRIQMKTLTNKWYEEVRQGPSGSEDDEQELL

Cc1cc(-c2ccc(C(=O)NCCOCCOCCOCCOCCNc3cccc4c3C(=O)N(C3CCC(=O)NC3=O)C4=O)cc2N2CCC(c3[nH]cnc3C)CC2)ccc1F (stereo not shown) [d9A1-2]
abundance of exogenous SLC9A8: not significantly affected
